Experimental data as given in ChEMBL document CHEMBL3885861, “Open TG-GATES”.

Species on record: Rattus norvegicus
Test: Open TG-GATES - Regimen: Daily Repeat
Assay type: toxicity, organism-based, Sprague-Dawley
Set-up: regimen Daily Repeat, gender Male, age 6 weeks
Details: in vivo, po, route gavage; for Bas / Eos / Fbg / Ht / Lym / MCHC / MCV / Mono / PT / Plat / RBC / Ret / WBC / Neu: tissue Blood; for KIDNEY_L / KIDNEY_R / KIDNEY_TOTAL: tissue Kidney; for ALT / AST / CRE / Ca / DBIL / GLC / IP / K / LDH / Na / PL / RALB / TBIL / TC / TG / TP / gamma-GTP / BUN / Cl: tissue Plasma
[1] = 240 mg/kg, 72 h, dose level Middle, time 3 day
[2] = 240 mg/kg, […], dose level Middle, time 7 day
[3] = 240 mg/kg, […], dose level Middle, time 14 day
[4] = 240 mg/kg, […], dose level Middle, time 28 day
[5] = 800 mg/kg, 72 h, dose level High, time 3 day
[6] = 800 mg/kg, […], dose level High, time 7 day
[7] = 800 mg/kg, […], dose level High, time 14 day
[8] = 800 mg/kg, […], dose level High, time 28 day

COc1ccc([C@@H]2Sc3ccccc3N(CCN(C)C)C(=O)[C@@H]2OC(C)=O)cc1 [DILTIAZEM]
Bas [1]: 0.2% | Eos [1]: 1% | Fbg [1]: 294.4 mg/dL | Ht [1]: 40.4% | Lym [1]: 71.6% | MCHC [1]: 32.8% | MCV [1]: 65.7 fL | Mono [1]: 3.4% | PT [1]: 13.8 s | Plat [1]: 118.5 x10_4/uL | RBC [1]: 614.8 x10_4/ul | Ret [1]: 8.8% | WBC [1]: 106.5 x10_2/uL | KIDNEY_L [1]: 1 g | KIDNEY_R [1]: 1 g | KIDNEY_TOTAL [1]: 2 g | ALT [1]: 50 IU/L | AST [1]: 67.4 IU/L | CRE [1]: 0.2 mg/dL | Ca [1]: 11.3 mg/dL | DBIL [1]: 0.02 mg/dL | GLC [1]: 183 mg/dL | IP [1]: 8.1 mg/dL | K [1]: 3.9 meq/L | LDH [1]: 81.8 IU/L | Na [1]: 144 meq/L | PL [1]: 153.8 mg/dL | RALB [1]: 2.7 g/dL | TBIL [1]: 0.024 mg/dL | TC [1]: 87.6 mg/dL | TG [1]: 99.4 mg/dL | TP [1]: 5.6 g/dL | gamma-GTP [1]: 1.2 IU/L | TERMINAL_BW [2]: 251.4 g | TERMINAL_BW [3]: 321.6 g | TERMINAL_BW [4]: 419 g | Bas [2]: 0% | Eos [2]: 0.8% | Fbg [2]: 301.4 mg/dL | Ht [2]: 41% | Lym [2]: 75.2% | MCHC [2]: 32.9% | MCV [2]: 63.6 fL | Mono [2]: 2.6% | Neu [2]: 20.6% | PT [2]: 13.9 s | Plat [2]: 129.2 x10_4/uL | RBC [2]: 644.6 x10_4/ul | Ret [2]: 7% | WBC [2]: 72.6 x10_2/uL | Bas [3]: 0.6% | Eos [3]: 0.8% | Fbg [3]: 336.4 mg/dL | Ht [3]: 42.8% | Lym [3]: 73% | MCHC [3]: 33.1% | MCV [3]: 61.7 fL | Mono [3]: 2.6% | Neu [3]: 22.2% | PT [3]: 14.1 s | Plat [3]: 131.9 x10_4/uL | RBC [3]: 693.6 x10_4/ul | Ret [3]: 5.6% | WBC [3]: 112.7 x10_2/uL | Bas [4]: 0.2% | Eos [4]: 1.4% | Fbg [4]: 305.4 mg/dL | Ht [4]: 45.7% | Lym [4]: 69% | MCHC [4]: 34.4% | MCV [4]: 58.1 fL | Mono [4]: 2.4% | Neu [4]: 26.6% | PT [4]: 13.9 s | Plat [4]: 109.1 x10_4/uL | RBC [4]: 786.8 x10_4/ul | Ret [4]: 2.5% | WBC [4]: 119 x10_2/uL | KIDNEY_L [2]: 1.1 g | KIDNEY_R [2]: 1 g | KIDNEY_TOTAL [2]: 2.1 g | KIDNEY_L [3]: 1.3 g | KIDNEY_R [3]: 1.4 g | KIDNEY_TOTAL [3]: 2.7 g | KIDNEY_L [4]: 1.5 g | KIDNEY_R [4]: 1.5 g | KIDNEY_TOTAL [4]: 3 g | ALT [2]: 38.6 IU/L | AST [2]: 61.6 IU/L | BUN [2]: 15 mg/dL | CRE [2]: 0.2 mg/dL | Ca [2]: 11.4 mg/dL | Cl [2]: 105.8 meq/L | DBIL [2]: 0.01 mg/dL | GLC [2]: 190.6 mg/dL | IP [2]: 8.2 mg/dL | K [2]: 3.9 meq/L | LDH [2]: 97.2 IU/L | Na [2]: 144.2 meq/L | PL [2]: 155 mg/dL | RALB [2]: 2.8 g/dL | TBIL [2]: 0.016 mg/dL | TC [2]: 81.2 mg/dL | TG [2]: 117 mg/dL | TP [2]: 5.9 g/dL | gamma-GTP [2]: 1.2 IU/L | ALT [3]: 44.4 IU/L | AST [3]: 67.8 IU/L | BUN [3]: 14.8 mg/dL | CRE [3]: 0.2 mg/dL | Ca [3]: 11 mg/dL | DBIL [3]: 0.012 mg/dL | GLC [3]: 194.4 mg/dL | IP [3]: 7.6 mg/dL | K [3]: 4 meq/L | LDH [3]: 80 IU/L | Na [3]: 144.4 meq/L | PL [3]: 165.4 mg/dL | RALB [3]: 2.8 g/dL | TBIL [3]: 0.014 mg/dL | TC [3]: 84.2 mg/dL | TG [3]: 125.4 mg/dL | TP [3]: 6.1 g/dL | gamma-GTP [3]: 1.4 IU/L | ALT [4]: 43.8 IU/L | AST [4]: 64.2 IU/L | BUN [4]: 17.2 mg/dL | CRE [4]: 0.2 mg/dL | Ca [4]: 11.3 mg/dL | Cl [4]: 108.6 meq/L | DBIL [4]: 0.012 mg/dL | GLC [4]: 188.6 mg/dL | IP [4]: 7 mg/dL | K [4]: 4 meq/L | LDH [4]: 82.6 IU/L | Na [4]: 146.6 meq/L | PL [4]: 168.8 mg/dL | RALB [4]: 3 g/dL | TBIL [4]: 0.014 mg/dL | TC [4]: 85.2 mg/dL | TG [4]: 163.4 mg/dL | TP [4]: 6.6 g/dL | gamma-GTP [4]: 1 IU/L | TERMINAL_BW [5]: 201.2 g | Bas [5]: 0% | Eos [5]: 1% | Fbg [5]: 277 mg/dL | Ht [5]: 41.8% | Lym [5]: 71.4% | MCHC [5]: 33.3% | MCV [5]: 64.5 fL | Mono [5]: 2.6% | Neu [5]: 24.2% | PT [5]: 14 s | Plat [5]: 141.9 x10_4/uL | RBC [5]: 651.2 x10_4/ul | Ret [5]: 7.5% | WBC [5]: 87.5 x10_2/uL | KIDNEY_L [5]: 0.9 g | KIDNEY_R [5]: 0.9 g | KIDNEY_TOTAL [5]: 1.8 g | ALT [5]: 36.4 IU/L | AST [5]: 61.8 IU/L | CRE [5]: 0.2 mg/dL | Ca [5]: 11 mg/dL | Cl [5]: 106.6 meq/L | DBIL [5]: 0.014 mg/dL | GLC [5]: 161.8 mg/dL | IP [5]: 8 mg/dL | K [5]: 4 meq/L | LDH [5]: 76.6 IU/L | Na [5]: 143.6 meq/L | PL [5]: 151.4 mg/dL | RALB [5]: 2.6 g/dL | TBIL [5]: 0.012 mg/dL | TC [5]: 92.2 mg/dL | TG [5]: 96.6 mg/dL | TP [5]: 5.4 g/dL | gamma-GTP [5]: 1 IU/L | TERMINAL_BW [6]: 242.9 g | TERMINAL_BW [7]: 272.9 g | TERMINAL_BW [8]: 390.8 g | Bas [6]: 0% | Eos [6]: 0.6% | Fbg [6]: 312.6 mg/dL | Ht [6]: 40.7% | Lym [6]: 70.6% | MCHC [6]: 33.3% | MCV [6]: 63.4 fL | Mono [6]: 2.8% | Neu [6]: 25.4% | PT [6]: 14.6 s | Plat [6]: 130.6 x10_4/uL | RBC [6]: 641.4 x10_4/ul | Ret [6]: 6.3% | WBC [6]: 99.7 x10_2/uL | Bas [7]: 0% | Eos [7]: 0.6% | Fbg [7]: 373.6 mg/dL | Ht [7]: 45.5% | Lym [7]: 73.2% | MCHC [7]: 33.4% | MCV [7]: 59.8 fL | Mono [7]: 3.4% | Neu [7]: 21.4% | PT [7]: 14.1 s | Plat [7]: 133.1 x10_4/uL | RBC [7]: 760 x10_4/ul | Ret [7]: 4% | WBC [7]: 108.8 x10_2/uL | Bas [8]: 0.2% | Eos [8]: 1% | Fbg [8]: 281.5 mg/dL | Ht [8]: 45.1% | Lym [8]: 64.8% | MCHC [8]: 34.1% | MCV [8]: 58.1 fL | Mono [8]: 3.2% | Neu [8]: 30.2% | PT [8]: 14.5 s | Plat [8]: 116.2 x10_4/uL | RBC [8]: 777.2 x10_4/ul | Ret [8]: 3.3% | WBC [8]: 123.1 x10_2/uL | KIDNEY_L [6]: 1 g | KIDNEY_R [6]: 1 g | KIDNEY_TOTAL [6]: 2 g | KIDNEY_L [7]: 1.2 g | KIDNEY_R [7]: 1.2 g | KIDNEY_TOTAL [7]: 2.4 g | KIDNEY_L [8]: 1.5 g | KIDNEY_R [8]: 1.5 g | KIDNEY_TOTAL [8]: 2.9 g | ALT [6]: 50 IU/L | AST [6]: 70.6 IU/L | CRE [6]: 0.2 mg/dL | Ca [6]: 11.3 mg/dL | Cl [6]: 105.6 meq/L | DBIL [6]: 0.006 mg/dL | GLC [6]: 187 mg/dL | IP [6]: 8.3 mg/dL | K [6]: 4 meq/L | LDH [6]: 101.6 IU/L | Na [6]: 144.8 meq/L | PL [6]: 145 mg/dL | RALB [6]: 2.7 g/dL | TBIL [6]: 0.004 mg/dL | TC [6]: 87.2 mg/dL | TG [6]: 59.6 mg/dL | TP [6]: 5.7 g/dL | gamma-GTP [6]: 1.2 IU/L | ALT [7]: 61.6 IU/L | AST [7]: 115.4 IU/L | BUN [7]: 16 mg/dL | CRE [7]: 0.2 mg/dL | Ca [7]: 10.7 mg/dL | DBIL [7]: 0.008 mg/dL | GLC [7]: 166.2 mg/dL | IP [7]: 7.2 mg/dL | K [7]: 4 meq/L | LDH [7]: 96.2 IU/L | Na [7]: 146.4 meq/L | PL [7]: 152.8 mg/dL | RALB [7]: 2.8 g/dL | TBIL [7]: 0.004 mg/dL | TC [7]: 99.2 mg/dL | TG [7]: 66.4 mg/dL | TP [7]: 6.1 g/dL | gamma-GTP [7]: 1 IU/L | ALT [8]: 52.5 IU/L | AST [8]: 64 IU/L | BUN [8]: 17.2 mg/dL | CRE [8]: 0.2 mg/dL | Ca [8]: 11.4 mg/dL | Cl [8]: 105.8 meq/L | DBIL [8]: 0.01 mg/dL | GLC [8]: 174.8 mg/dL | IP [8]: 7.2 mg/dL | K [8]: 3.9 meq/L | LDH [8]: 74.8 IU/L | Na [8]: 145.8 meq/L | PL [8]: 154 mg/dL | RALB [8]: 3 g/dL | TBIL [8]: 0.0025 mg/dL | TC [8]: 85.8 mg/dL | TG [8]: 72.2 mg/dL | TP [8]: 6.4 g/dL | gamma-GTP [8]: 2.2 IU/L
